Measured values as given in patent US20220009914A1, “Analogs of Nitrofuran Antibiotics to Combat Resistance” (The Trustees of Indiana University, priority 2020, published 2022).

What was measured:
E. coli GroEL/ES [1] = molecular target: T1, E. coli GroEL/ES (Escherichia coli, UniProt P0A6F5); test: GroEL/ES-mediated dRho refolding assay; type: biochemical
T1 construct: made in house; host or cells: GroEL in NEB 5-alpha E. coli; GroES in E. coli BL21 (DE3)
Description: Evaluating compounds for inhibition in the GroEL/ES-mediated dRho refolding assay. Reagent preparation: For this assay, five primary reagent stocks were prepared: 1) GroEL/ES-dRho binary complex stock; 2) ATP initiation stock; 3) thiocyanate enzymatic assay stock; 4) formaldehyde quench stock; 5) ferric nitrate reporter stock. Denatured rhodanese (dRho) was prepared by 3-fold dilution of rhodanese (Roche product #R^1756, diluted to 10 mg/mL with H2O) with denaturant buffer (12 M Urea, 50 mM Tris-HCl, pH 7.4, and 10 mM DTT). Rhodanese was completely denatured by incubating at room temperature for >45 min. The binary complex solution was prepared by slowly adding the dRho stock to a stirring stock of concentrated GroEL in modified folding buffer (50 mM Tris-HCl, pH 7.4, 50 mM KCl, 10 mM MgCl2, 5 mM Na2S2O3, and 1 mM DTT). The solution was centrifuged at 16,000×g for 5 minutes, and the supernatant was collected and added to a solution of GroES in modified folding buffer to give final protein concentrations of 100 nM GroEL, 120 nM GroES, and 80 nM dRho. The binary complex stock was prepared immediately prior to use. For the ATP initiation stock, ATP solid was diluted into modified folding buffer to a final concentration of 2.0 mM. The thiocyanate enzymatic assay stock was prepared to contain 70 mM KH2PO4, 80 mM KCN, and 80 mM Na2S2O3 in water. The formaldehyde quench solution contained 30% formaldehyde in water.
Assay Protocol: First, 10 μL aliquots of the GroEL/ES-dRho complex stock were dispensed into clear, flat-bottom 384-well polystyrene plates. […] After incubating for 40 minutes at 37° C. for the refolding cycle, 30 μL of the thiocyanate enzymatic assay stock was added and incubated for 60 min at room temperature for the refolded rhodanese enzymatic reporter reaction. The reporter reaction was quenched by adding 10 μL of the formaldehyde quench stock, and then 40 μL of the ferric nitrate reporter stock was added to quantify the amount of thiocyanate produced during the enzymatic reporter reaction, which is proportional to the amount of dRho refolded by GroEL/ES. After incubating at room temperature for 15 min, the absorbance by Fe(SCN)3 was measured at 460 nm using a Molecular Devices SpectraMax Plus384 microplate reader. A second set of baseline control plates were prepared analogously, but without GroEL/ES-dRho protein binary solution, to correct for possible interference from compound absorbance or turbidity. […] Results presented represent the averages of IC50 values obtained from at least four replicates.
Evaluating compounds for inhibition in the GroEL/ES-mediated dRho refolding assay. All compounds were evaluated for inhibiting E. coli GroEL/ES-mediated refolding of the denatured Rho reporter enzyme as per our previously reported procedure. Results presented represent the averages of IC50 values obtained from at least four replicates.

E. coli GroEL/ES [2] = molecular target: T1, E. coli GroEL/ES; test: GroEL/ES-mediated dMDH refolding assay; type: biochemical
Description: Evaluating compounds for inhibition in the GroEL/ES-mediated dMDH refolding assay. All compounds were evaluated for inhibiting E. coli GroEL/ES-mediated refolding of the denatured MDH reporter enzyme. Reagent preparation: For these assays, four primary reagent stocks were prepared: 1) GroEL/ES-dMDH binary complex stock; 2) ATP initiation stock; 3) EDTA quench stock; 4) MDH enzymatic assay stock. Denatured MDH (dMDH) was prepared by 2-fold dilution of MDH (5 mg/ml, soluble pig heart MDH from Roche, product #10127248001) with denaturant buffer (7 M guanidine-HCl, 200 mM Tris, pH 7.4, and 50 mM DTT). MDH was completely denatured by incubating at room temperature for >45 min. The binary complex solutions were prepared by slowly adding the dMDH stock to a stirring stock with GroEL and GroES in folding buffer (50 mM Tris-HCl, pH 7.4, 50 mM KCl, 10 mM MgC2, and 1 mM DTT). […] For the ATP initiation stock, ATP solid was diluted into folding buffer to a final concentration of 2.5 mM. Quench solution contained 600 mM EDTA (pH 8.0). The MDH enzymatic assay stock consisted of 20 mM sodium mesoxalate and 1.6 mM NADH in reaction buffer (50 mM Tris-HCl, pH 7.4, 50 mM KCl, and 1 mM DTT).
Assay Protocol: First, 30 μL aliquots of the GroEL/ES-dMDH binary complex stocks were dispensed into clear, 384-well polystyrene plates. […] The chaperonin-mediated refolding cycles were initiated by addition of 20 μL of ATP stock (reagent concentrations during refolding cycle: 50 nM GroEL, 60 nM GroES, 12 nM dMDH, 1 mM ATP, and compounds of 100 μM to 46 nM, 3-fold dilution series) and the refolding reactions were incubated at 37° C. […] Next, the assay was quenched by addition of 10 μL of the EDTA stock to give a final concentration of 100 mM in the wells. […] A340 nm measurements were recorded at 0.5 minutes (start point) and at successive time points until the amount of NADH consumed reached ˜90% (end point, generally between 20-35 minutes).
Evaluating analogs for inhibiting GroEL/ES-mediated substrate refolding functions. […] We first evaluated all test compounds in our standard GroEL/ES-mediated refolding assays that employ either malate dehydrogenase (MDH) or rhodanese (Rho) as the denatured substrate reporter enzymes. When denatured, these enzymes are efficiently folded by GroEL/ES in the absence of inhibitors, and thus act as reporters to determine the degree of inhibition against the bacterial chaperonin system. Inhibition was examined in the presence of these two orthogonal substrates in order to support that GroEL/ES inhibitors were on-target. To further support on-target effects against GroEL/ES, we counter-screened for inhibition of the native MDH and Rho enzymatic reporter reactions, where test compounds were added after the denatured MDH and Rho substrate enzymes were completely refolded by GroEL/ES.

[3] = without NfsB nitroreductase, read-out: GroEL/ES-dMDH Refolding IC50

T1 sequence (P0A6F5 2-548): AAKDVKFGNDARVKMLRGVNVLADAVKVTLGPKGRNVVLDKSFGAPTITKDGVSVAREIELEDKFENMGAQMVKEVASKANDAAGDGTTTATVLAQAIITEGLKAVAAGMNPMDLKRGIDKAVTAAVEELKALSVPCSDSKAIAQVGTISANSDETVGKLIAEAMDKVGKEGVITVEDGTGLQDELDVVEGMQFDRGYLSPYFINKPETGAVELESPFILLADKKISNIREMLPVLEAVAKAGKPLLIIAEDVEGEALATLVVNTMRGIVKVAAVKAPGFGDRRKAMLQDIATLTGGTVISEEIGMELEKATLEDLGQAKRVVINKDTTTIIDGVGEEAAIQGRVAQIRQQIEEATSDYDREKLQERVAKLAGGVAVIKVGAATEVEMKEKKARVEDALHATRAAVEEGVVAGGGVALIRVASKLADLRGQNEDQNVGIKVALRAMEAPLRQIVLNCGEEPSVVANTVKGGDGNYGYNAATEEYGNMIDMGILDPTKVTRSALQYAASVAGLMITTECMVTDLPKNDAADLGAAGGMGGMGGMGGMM

Compound | IC50 (E. coli GroEL/ES [1]) [µM] | IC50 (E. coli GroEL/ES [2]) [µM] | IC50 (E. coli GroEL/ES [2]; [3]) [µM] | IC50 (E. coli GroEL/ES [1]; read-out: GroEL/ES-dRho Refolding IC50) [µM] | GroEL/ES inhibition in words (E. coli GroEL/ES [2]; standard dMDH and dRho refolding assays, no nitroreductase)
CCN(CC)S(=O)(=O)c1cccc(C(=O)N/N=C/c2ccc(O)c3ncccc23)c1 [Compound 12, N,N-diethyl-3-(2-((8-hydroxyquinolin-5-yl)methylene)hydrazine-1-carbonyl)benzenesulfonamide] | 10 | 19 |  |  | 
O=Cc1ccc([N+](=O)[O-])o1 [Compound 41, reference compound] | 31 | 78 |  |  | 
O=C(N/N=C/c1ccc(O)c2ncccc12)c1ccc(Cl)s1 [Compound 4, 5-chloro-N′-((8-hydroxyquinolin-5-yl)methylene)thiophene-2-carbohydrazide] | 1.4 | 9.6 |  |  | 
O=C(N/N=C/c1ccc(O)c2ccccc12)c1ccccc1 [Compound 30, N′-((4-hydroxynaphthalen-1-yl)methylene)benzohydrazide] | 216 | > 100 |  |  | 
COc1ccc(C(=O)N/N=C/c2ccc([N+](=O)[O-])o2)cc1 [Compound 20, 4-methoxy-N′-((5-nitrofuran-2-yl)methylene)benzohydrazide] | 108 |  | 69 |  | 
COc1ccc(C(=O)N/N=C/c2cccc3ncccc23)cc1 [Compound 31, 4-methoxy-N′-(quinolin-5-ylmethylene)benzohydrazide] | > 250 | > 100 |  |  | 
COc1ccc(C(=O)N/N=C/c2cccc3ccccc23)cc1 [Compound 33, 4-methoxy-N′-(naphthalen-1-ylmethylene)benzohydrazide] | 129 | > 100 |  |  | 
CN(C)c1ccc(C(=O)N/N=C/c2ccc([N+](=O)[O-])o2)cc1 [Compound 21, 4-(dimethylamino)-N′-((5-nitrofuran-2-yl)methylene)benzohydrazide] |  |  | 26 | 26 | generally the most potent GroEL/ES inhibitors
O=C(N/N=C/c1ccccc1)c1ccccc1 [Compound 38, N′-benzylidenebenzohydrazide] | > 250 | > 100 |  |  | 
O=C(N/N=C/c1ccc([N+](=O)[O-])o1)c1cccc(Oc2ccccc2)c1 [Compound 24, N′-((5-nitrofuran-2-yl)methylene)-3-phenoxybenzohydrazide] | 50 | 71 |  |  | 
O=C(N/N=C/c1ccc(O)c2ncccc12)c1ccc(O)cc1 [Compound 7, 4-hydroxy-N′-((8-hydroxyquinolin-5-yl)methylene)benzohydrazide] | 9 | 43 |  |  | 
O=C(N/N=C/c1ccc([N+](=O)[O-])o1)c1cccc2ccccc12 [Compound 22, N′-((5-nitrofuran-2-yl)methylene)-1-naphthohydrazide] | 73 | 82 |  |  | 
O=C(N/N=C/c1cccc2ccccc12)c1ccccc1 [Compound 34, N′-(naphthalen-1-ylmethylene)benzohydrazide] | 209 | > 100 |  |  | 
O=C(N/N=C/c1ccc([N+](=O)[O-])o1)c1ccc(O)cc1 [Nifuroxazide, reference compound] | 133 | > 100 |  |  | 
COc1ccc(C(=O)N/N=C/c2ccco2)cc1 [Compound 39, N′-(furan-2-ylmethylene)-4-methoxybenzohydrazide] | > 250 | > 100 |  |  | 
O=C(N/N=C/c1ccc([N+](=O)[O-])o1)c1ccc(NS(=O)(=O)c2ccc(Br)cc2)cc1 [Compound 27, 4-bromo-N-(4-(2-((5-nitrofuran-2-yl)methylene)hydrazine-1-carbonyl)phenyl)benzenesulfonamide] | 59 | 36 |  |  | 
O=C(N/N=C/c1ccc(O)c2ncccc12)c1ccccc1Oc1ccccc1 [Compound 10, N′-((8-hydroxyquinolin-5-yl)methylene)-2-phenoxybenzohydrazide] | 4.5 | 15 |  |  | 
